# Measured values reported in the NIST ThermoML archive (doi:10.1016/j.jct.2017.03.006).
# Numbers after ± are expanded uncertainties.
# Test: xn = mol fraction of the nth substance listed
# Settings: 313.15 K, Liquid; for viscosity: Concentric cylinders viscometry; for mass density: Vibrating tube method
smiles,measurement,setting,value
"Cc1ccc(C)c(C)c1 [1,2,4-trimethylbenzene] + CCC(C)O",viscosity,"100 kPa, x2 = 0.5298",0.773 ± 0.017 mPa·s
same,viscosity,"100 kPa, x2 = 0.6001",0.84 ± 0.018 mPa·s
same,viscosity,"100 kPa, x2 = 0.7001",0.94 ± 0.02 mPa·s
same,viscosity,"100 kPa, x2 = 0.7997",1.09 ± 0.023 mPa·s
same,viscosity,"100 kPa, x2 = 0.9001",1.35 ± 0.028 mPa·s
same,mass density,"100 kPa, x2 = 0",859 ± 0.7 kg/m3
same,mass density,"100 kPa, x2 = 0.1",852.6 ± 0.7 kg/m3
same,mass density,"100 kPa, x2 = 0.1989",846.6 ± 0.7 kg/m3
same,mass density,"100 kPa, x2 = 0.3011",840.2 ± 0.7 kg/m3
same,mass density,"100 kPa, x2 = 0.4002",834 ± 0.7 kg/m3
same,mass density,"100 kPa, x2 = 0.5001",827.5 ± 0.7 kg/m3
same,mass density,"100 kPa, x2 = 0.5997",820.6 ± 0.7 kg/m3
same,mass density,"100 kPa, x2 = 0.6999",813.4 ± 0.7 kg/m3
same,mass density,"100 kPa, x2 = 0.7999",806 ± 0.7 kg/m3
same,mass density,"100 kPa, x2 = 0.9",797.9 ± 0.7 kg/m3
same,mass density,"1000 kPa, x2 = 0",859.7 ± 0.7 kg/m3
same,mass density,"1000 kPa, x2 = 0.1",853.3 ± 0.7 kg/m3
same,mass density,"1000 kPa, x2 = 0.1989",847.2 ± 0.7 kg/m3
same,mass density,"1000 kPa, x2 = 0.3011",840.9 ± 0.7 kg/m3
same,mass density,"1000 kPa, x2 = 0.4002",834.7 ± 0.7 kg/m3
same,mass density,"1000 kPa, x2 = 0.5001",828.2 ± 0.7 kg/m3
same,mass density,"1000 kPa, x2 = 0.5997",821.3 ± 0.7 kg/m3
same,mass density,"1000 kPa, x2 = 0.6999",814.2 ± 0.7 kg/m3
same,mass density,"1000 kPa, x2 = 0.7999",806.7 ± 0.7 kg/m3
same,mass density,"1000 kPa, x2 = 0.9",798.7 ± 0.7 kg/m3
same,mass density,"2000 kPa, x2 = 0",860.4 ± 0.7 kg/m3
same,mass density,"2000 kPa, x2 = 0.1",854.1 ± 0.7 kg/m3
same,mass density,"2000 kPa, x2 = 0.1989",848 ± 0.7 kg/m3
same,mass density,"2000 kPa, x2 = 0.3011",841.7 ± 0.7 kg/m3
same,mass density,"2000 kPa, x2 = 0.4002",835.6 ± 0.7 kg/m3
same,mass density,"2000 kPa, x2 = 0.5001",829.1 ± 0.7 kg/m3
same,mass density,"2000 kPa, x2 = 0.5997",822.2 ± 0.7 kg/m3
same,mass density,"2000 kPa, x2 = 0.6999",815 ± 0.7 kg/m3
same,mass density,"2000 kPa, x2 = 0.7999",807.6 ± 0.7 kg/m3
same,mass density,"2000 kPa, x2 = 0.9",799.6 ± 0.7 kg/m3
same,mass density,"5000 kPa, x2 = 0",862.6 ± 0.7 kg/m3
same,mass density,"5000 kPa, x2 = 0.1",856.3 ± 0.7 kg/m3
same,mass density,"5000 kPa, x2 = 0.1989",850.3 ± 0.7 kg/m3
same,mass density,"5000 kPa, x2 = 0.3011",844.1 ± 0.7 kg/m3
same,mass density,"5000 kPa, x2 = 0.4002",838 ± 0.7 kg/m3
same,mass density,"5000 kPa, x2 = 0.5001",831.5 ± 0.7 kg/m3
same,mass density,"5000 kPa, x2 = 0.5997",824.6 ± 0.7 kg/m3
same,mass density,"5000 kPa, x2 = 0.6999",817.5 ± 0.7 kg/m3
same,mass density,"5000 kPa, x2 = 0.7999",810.1 ± 0.7 kg/m3
same,mass density,"5000 kPa, x2 = 0.9",802.1 ± 0.7 kg/m3
same,mass density,"10000 kPa, x2 = 0",866 ± 0.7 kg/m3
same,mass density,"10000 kPa, x2 = 0.1",860 ± 0.7 kg/m3
same,mass density,"10000 kPa, x2 = 0.1989",854.1 ± 0.7 kg/m3
same,mass density,"10000 kPa, x2 = 0.3011",847.9 ± 0.7 kg/m3
same,mass density,"10000 kPa, x2 = 0.4002",841.7 ± 0.7 kg/m3
same,mass density,"10000 kPa, x2 = 0.5001",835.4 ± 0.7 kg/m3
same,mass density,"10000 kPa, x2 = 0.5997",828.5 ± 0.7 kg/m3
same,mass density,"10000 kPa, x2 = 0.6999",821.5 ± 0.7 kg/m3
same,mass density,"10000 kPa, x2 = 0.7999",814.2 ± 0.7 kg/m3
same,mass density,"10000 kPa, x2 = 0.9",806.2 ± 0.7 kg/m3
same,mass density,"15000 kPa, x2 = 0",869.3 ± 0.7 kg/m3
same,mass density,"15000 kPa, x2 = 0.1",863.5 ± 0.7 kg/m3
same,mass density,"15000 kPa, x2 = 0.1989",857.6 ± 0.7 kg/m3
same,mass density,"15000 kPa, x2 = 0.3011",851.5 ± 0.7 kg/m3
same,mass density,"15000 kPa, x2 = 0.4002",845.4 ± 0.7 kg/m3
same,mass density,"15000 kPa, x2 = 0.5001",839.1 ± 0.7 kg/m3
same,mass density,"15000 kPa, x2 = 0.5997",832.3 ± 0.7 kg/m3
same,mass density,"15000 kPa, x2 = 0.6999",825.3 ± 0.7 kg/m3
same,mass density,"15000 kPa, x2 = 0.7999",818 ± 0.7 kg/m3
same,mass density,"15000 kPa, x2 = 0.9",810.1 ± 0.7 kg/m3
same,mass density,"20000 kPa, x2 = 0",872.6 ± 0.7 kg/m3
same,mass density,"20000 kPa, x2 = 0.1",866.8 ± 0.7 kg/m3
same,mass density,"20000 kPa, x2 = 0.1989",861 ± 0.7 kg/m3
same,mass density,"20000 kPa, x2 = 0.3011",854.9 ± 0.7 kg/m3
same,mass density,"20000 kPa, x2 = 0.4002",848.9 ± 0.7 kg/m3
same,mass density,"20000 kPa, x2 = 0.5001",842.6 ± 0.7 kg/m3
same,mass density,"20000 kPa, x2 = 0.5997",835.9 ± 0.7 kg/m3
same,mass density,"20000 kPa, x2 = 0.6999",829 ± 0.7 kg/m3
same,mass density,"20000 kPa, x2 = 0.7999",821.7 ± 0.7 kg/m3
same,mass density,"20000 kPa, x2 = 0.9",813.8 ± 0.7 kg/m3
same,mass density,"30000 kPa, x2 = 0",878.7 ± 0.7 kg/m3
same,mass density,"30000 kPa, x2 = 0.1",873.2 ± 0.7 kg/m3
same,mass density,"30000 kPa, x2 = 0.1989",867.5 ± 0.7 kg/m3
same,mass density,"30000 kPa, x2 = 0.3011",861.5 ± 0.7 kg/m3
same,mass density,"30000 kPa, x2 = 0.4002",855.6 ± 0.7 kg/m3
same,mass density,"30000 kPa, x2 = 0.5001",849.4 ± 0.7 kg/m3
same,mass density,"30000 kPa, x2 = 0.5997",842.8 ± 0.8 kg/m3
same,mass density,"30000 kPa, x2 = 0.6999",835.8 ± 0.8 kg/m3
same,mass density,"30000 kPa, x2 = 0.7999",828.6 ± 0.8 kg/m3
same,mass density,"30000 kPa, x2 = 0.9",820.8 ± 0.8 kg/m3
same,mass density,"40000 kPa, x2 = 0",884.5 ± 0.7 kg/m3
same,mass density,"40000 kPa, x2 = 0.1",879.2 ± 0.7 kg/m3
same,mass density,"40000 kPa, x2 = 0.1989",873.5 ± 0.8 kg/m3
same,mass density,"40000 kPa, x2 = 0.3011",867.6 ± 0.8 kg/m3
same,mass density,"40000 kPa, x2 = 0.4002",861.7 ± 0.8 kg/m3
same,mass density,"40000 kPa, x2 = 0.5001",855.8 ± 0.8 kg/m3
same,mass density,"40000 kPa, x2 = 0.5997",849 ± 0.8 kg/m3
same,mass density,"40000 kPa, x2 = 0.6999",842.2 ± 0.8 kg/m3
same,mass density,"40000 kPa, x2 = 0.7999",835 ± 0.8 kg/m3
same,mass density,"40000 kPa, x2 = 0.9",827.3 ± 0.8 kg/m3
same,mass density,"50000 kPa, x2 = 0",889.9 ± 0.8 kg/m3
same,mass density,"50000 kPa, x2 = 0.1",884.8 ± 0.8 kg/m3
same,mass density,"50000 kPa, x2 = 0.1989",879.3 ± 0.8 kg/m3
same,mass density,"50000 kPa, x2 = 0.3011",873.4 ± 0.8 kg/m3
same,mass density,"50000 kPa, x2 = 0.4002",867.5 ± 0.8 kg/m3
same,mass density,"50000 kPa, x2 = 0.5001",861.6 ± 0.8 kg/m3
